Assay results published in ChEMBL document CHEMBL1255366, “First report of cfr-mediated resistance to linezolid in human staphylococcal clinical isolates recovered in the United States” (2008).
≈ marks a conversion by molar mass, not a printed value.

Legend:
Format in all cases: functional
Staphylococcus aureus [1] = assay: Antimicrobial activity against linezolid-resistant Staphylococcus aureus isolate 004-737X expressing cfr and ermA gene isolated from paraplegic patient by broth microdilution method
[2] = system: Staphylococcus epidermidis; assay: Antimicrobial activity against Staphylococcus epidermidis isolate 426-3147L expressing cfr gene by broth microdilution CLSI method
Staphylococcus aureus [3] = assay: Antimicrobial activity against linezolid-resistant Staphylococcus aureus isolate 004-737X expressing cfr and ermA gene isolated from paraplegic patient by Etest method
[4] = system: Staphylococcus epidermidis; assay: Antimicrobial activity against Staphylococcus epidermidis isolate 426-3147L expressing cfr gene by Etest method
Staphylococcus aureus [5] = assay: Antimicrobial activity against linezolid-resistant Staphylococcus aureus isolate 004-737X expressing cfr and ermA gene isolated from paraplegic patient by disk diffusion method
[6] = system: Staphylococcus epidermidis; assay: Antimicrobial activity against Staphylococcus epidermidis isolate 426-3147L expressing cfr gene by disk diffusion method

Structure (SMILES) | MIC (Staphylococcus aureus [1]) [µg/mL] | MIC [2] [µg/mL] | MIC (Staphylococcus aureus [3]) [µg/mL] | MIC [4] [µg/mL] | diameter of the inhibition zone (DIZ) (Staphylococcus aureus [5]) [mm] | diameter of the inhibition zone (DIZ) [6] [mm]
O=C(N[C@H](CO)[C@H](O)c1ccc([N+](=O)[O-])cc1)C(Cl)Cl [CHLORAMPHENICOL] | > 256 | > 256 |  |  |  | 
O=C(O)c1cn(C2CC2)c2cc(N3CCNCC3)c(F)cc2c1=O [CIPROFLOXACIN] | > 32 |  |  |  |  | 
CCC[C@@H]1C[C@@H](C(=O)N[C@@H]([C@H]2O[C@H](SC)[C@H](O)[C@@H](O)[C@H]2O)[C@H](C)Cl)N(C)C1 [CLINDAMYCIN] | > 256 | > 256 |  |  |  | 
CC[C@H]1OC(=O)[C@H](C)[C@@H](O[C@H]2C[C@@](C)(OC)[C@@H](O)[C@H](C)O2)[C@H](C)[C@@H](O[C@@H]2O[C@H](C)C[C@H](N(C)C)[C@H]2O)[C@](C)(O)C[C@@H](C)C(=O)[C@H](C)[C@@H](O)[C@]1(C)O [ERYTHROMYCIN] | > 256 | > 4 |  |  |  | 
CC(=O)NC[C@H]1CN(c2ccc(N3CCOCC3)c(F)c2)C(=O)O1 [LINEZOLID] | 8 (≈ 23.7 µM) | > 256 | 8 (≈ 23.7 µM) | > 256 | 19 | 6
C/C(=C\C(=O)OCCCCCCCCC(=O)O)C[C@@H]1OC[C@H](C[C@@H]2O[C@H]2[C@@H](C)[C@H](C)O)[C@@H](O)[C@H]1O [MUPIROCIN] | 0.25 (≈ 0.499 µM) | 64 (≈ 128 µM) |  |  |  | 
Cc1onc(-c2ccccc2)c1C(=O)N[C@@H]1C(=O)N2[C@@H]1SC(C)(C)[C@@H]2C(=O)O [OXACILLIN] | > 2 | > 2 |  |  |  | 
C=C[C@]1(C)C[C@@H](OC(=O)CS[C@@H]2C[C@H]3CC[C@@H](C2)N3C)[C@]2(C)[C@H](C)CC[C@]3(CCC(=O)[C@H]32)[C@@H](C)[C@@H]1O [RETAPAMULIN] | 32 (≈ 61.8 µM) | > 32 |  |  |  | 
CN(C)[C@@H]1C(O)=C(C(N)=O)C(=O)[C@@]2(O)C(O)=C3C(=O)c4c(O)cccc4[C@@](C)(O)[C@H]3C[C@@H]12 [TETRACYCLINE] | > 8 | > 8 |  |  |  | 
